Patent publication US20120065187A1 (ALCON RESEARCH, LTD, priority 2008, published 2012)
Counter-ions that a name gives are not always drawn.

Key:
human H1 = target: T1, human H1 (Homo sapiens, UniProt P35367); assay: In vitro histamine receptor cell-based assay (aequorin bioluminescence), H1 antagonism; settings: CHO-K1 cells expressing human H1 and aequorin; histamine at EC80; read-out: H1 Antagonist EC50
T1 construct: host or cells: CHO-K1
In short: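 Antagonism read as drop in aequorin luminescence after histamine challenge at a predetermined EC80, following 15 min compound pretreatment at room temperature. Cells: CHO-K1 carrying human H1, or H4 with Gα16; signal as AUC or amplitude, normalised to 10 μM diphenhydramine (H1) or JNJ7777120 (H4).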

human H4 = target: T2, human H4 (Homo sapiens, UniProt Q9H3N8); assay: In vitro histamine receptor cell-based assay (aequorin bioluminescence), H4 antagonism; settings: CHO-K1 cells expressing human H4, aequorin and Gα16; histamine at EC80; read-out: H4 Antagonist EC50
T2 construct: host or cells: CHO-K1
In short: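 Antagonism read as loss of aequorin luminescence after histamine (EC80 final) addition, following 15 min room-temperature compound pretreatment of coelenterazine-h-loaded (5 μM) CHO-K1 cells co-expressing human H4 and Gα16. Efficacy given relative to 10 μM JNJ7777120; agonism excluded in separate no-histamine runs.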

T1 sequence (P35367 whole entry): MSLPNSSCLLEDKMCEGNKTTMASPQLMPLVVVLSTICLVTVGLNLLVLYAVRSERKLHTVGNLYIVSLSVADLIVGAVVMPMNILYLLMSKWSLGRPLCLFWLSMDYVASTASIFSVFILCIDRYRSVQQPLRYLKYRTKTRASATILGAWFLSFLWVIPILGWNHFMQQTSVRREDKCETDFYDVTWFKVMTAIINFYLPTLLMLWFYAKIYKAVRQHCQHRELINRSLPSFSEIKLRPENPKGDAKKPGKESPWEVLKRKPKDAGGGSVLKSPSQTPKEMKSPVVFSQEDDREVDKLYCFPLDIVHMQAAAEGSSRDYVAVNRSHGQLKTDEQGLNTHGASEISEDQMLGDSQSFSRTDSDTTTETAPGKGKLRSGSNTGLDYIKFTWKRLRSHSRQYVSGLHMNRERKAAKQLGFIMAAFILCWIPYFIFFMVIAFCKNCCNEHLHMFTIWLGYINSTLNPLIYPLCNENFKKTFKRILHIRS
T2 sequence (Q9H3N8 whole entry): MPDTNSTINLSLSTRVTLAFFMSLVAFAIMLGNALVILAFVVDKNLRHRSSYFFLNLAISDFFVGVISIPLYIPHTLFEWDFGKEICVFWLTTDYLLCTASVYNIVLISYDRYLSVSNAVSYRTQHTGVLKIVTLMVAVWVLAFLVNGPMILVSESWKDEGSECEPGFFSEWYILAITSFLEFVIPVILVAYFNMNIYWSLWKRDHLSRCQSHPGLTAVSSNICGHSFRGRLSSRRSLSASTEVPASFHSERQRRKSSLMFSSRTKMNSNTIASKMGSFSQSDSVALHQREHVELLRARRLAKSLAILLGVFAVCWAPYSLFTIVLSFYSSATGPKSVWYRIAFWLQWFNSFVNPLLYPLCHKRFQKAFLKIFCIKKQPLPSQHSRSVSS

Compound	EC50 (human H1) [µM]	EC50 (human H4) [µM]
Cc1nc2c3cc(Cl)c(Cl)cc3nc(N3CCN(C)CC3)n2n1 [Example 93, 8,9-Dichloro-2-methyl-5-(4-methylpiperazin-1-yl)-[1,2,4]triazolo[1,5-c]quinazoline]	> 10	< 10
COc1ccc2nc(N3CCNCC3)n3nc(C)nc3c2c1 [Example 102, 9-Methoxy-2-methyl-5-(piperazin-1-yl)-[1,2,4]triazolo[1,5-c]quinazoline]	> 10	> 10
Fc1cc2nc(N3CCNCC3)c3nncn3c2cc1F [Example 38, 7,8-difluoro-4-(piperazin-1-yl)-[1,2,4]triazolo[4,3-a]quinoxaline]	> 10	< 10
CN1CCN(c2nc3ccccc3n3cnnc23)CC1 [Example 58, 4-(4-methylpiperazin-1-yl)-[1,2,4]triazolo[4,3-a]quinoxaline]	> 10	< 10
Clc1ccc2nc(C3=CCNCC3)c3nncn3c2c1 [Example 1, 8-chloro-4-(1,2,3,6-tetrahydropyridin-4-yl)-[1,2,4]triazolo[4,3-a]quinoxaline]	> 10	> 10
Cc1nc2c3cc(Br)ccc3nc(N3CCN(C)CC3)n2n1 [Example 135, 9-bromo-2-methyl-5-(4-methylpiperazin-1-yl)-[1,2,4]triazolo[1,5-c]quinazoline]	< 10	< 10
Cn1cnc2c(N3CCNCC3)nc3ccc(Cl)cc3c21 [Example 158, 8-Chloro-1-methyl-4-(piperazin-1-yl)-1H-imidazo[4,5-c]quinoline]	> 10	> 10
C=Cc1ccc2nc(N3CCNCC3)c3nncn3c2c1 [Example 89, 4-(piperazin-1-yl)-8-vinyl-[1,2,4]triazolo[4,3-a]quinoxaline]	> 10	< 10
Fc1cc2nc(N3CCNCC3)c3nnnn3c2cc1Cl [Example 188, 8-chloro-7-fluoro-4-(piperazin-1-yl)tetrazolo[1,5-a]quinoxaline]	> 10	< 10
CC(C)(C)OC(=O)N1CCN(c2nc3ccc(Cl)cc3n3cnnc23)CC1 [Example 56, tert-butyl 4-(8-chloro-[1,2,4]triazolo[4,3-a]quinoxalin-4-yl)piperazine-1-carboxylate]	> 10	> 10
Cc1cc2c(cc1F)nc(N1CCN(C)CC1)c1nncn12 [Example 34, 7-fluoro-8-methyl-4-(4-methylpiperazin-1-yl)-[1,2,4]triazolo[4,3-a]quinoxaline]	> 10	< 10
Cn1cc2c(n1)c(N1CC[N+](C)(C)CC1)nc1ccc(Cl)cc12 [Example 154, 4-(8-Chloro-2-methyl-2H-pyrazolo[3,4-c]quinolin-4-yl)-1,1-dimethylpiperazin-1-ium]	> 10	> 10
Fc1cc2c(cc1Br)nc(N1CCNCC1)c1nncn12 [Example 198, 7-bromo-8-fluoro-4-(piperazin-1-yl)-[1,2,4]triazolo[4,3-a]quinoxaline]	> 10	< 10
Cc1nc2c(N3CCN(C)CC3)nc3ccc(C(F)(F)F)cc3c2o1 [Example 214, 2-methyl-4-(4-methylpiperazin-1-yl)-8-(trifluoromethyl)oxazolo[4,5-c]quinoline]	> 10	< 10
Clc1ccc2nc(N3CCNCC3)c3ncoc3c2c1 [Example 142, 8-Chloro-4-piperazinyl-1,3-oxazolo[4,5-c]quinoline]	> 10	< 10
CN1CCN(c2nc3cc(F)c(Cl)cc3n3ccnc23)CC1 [Example 179]	> 10	< 10
Cc1nc2c3cc(C(F)(F)F)c(Cl)cc3nc(N3CCNCC3)n2n1 [Example 123, 8-chloro-2-methyl-5-(piperazin-1-yl)-9-(trifluoromethyl)-[1,2,4]triazolo[1,5-c]quinazoline]	> 10	< 10
CC(C)c1nnc2c(N3CCN(C)CC3)nc3ccc(Cl)cc3n12 [Example 87, 8-chloro-1-isopropyl-4-(4-methylpiperazin-1-yl)-[1,2,4]triazolo[4,3-a]quinoxaline]	> 10	< 10
CN1CCN(c2nc3cc(Cl)c(C(F)(F)F)cc3n3cnnc23)CC1 [Example 44, 7-Chloro-4-(4-methylpiperazin-1-yl)-8-(trifluoromethyl)-[1,2,4]triazolo[4,3-a]quinoxaline]	> 10	< 10
CN1CCN(c2nc3ccc(C(F)(F)F)cc3n3ccnc23)CC1 [Example 177]	> 10	< 10
CN1CCN(c2nc3ccc(Cl)cc3c3nnnn23)CC1 [Example 13, 9-chloro-5-(4-methylpiperazin-1-yl)tetrazolo[1,5-c]quinazoline]	> 10	< 10

Compound	EC50 (human H1) [µM]	EC50 (human H4) [µM]
Cc1nc2c3cc(Cl)c(C(F)(F)F)cc3nc(N3CCNCC3)n2n1 [Example 132, 9-chloro-2-methyl-5-(piperazin-1-yl)-8-(trifluoromethyl)-[1,2,4]triazolo[1,5-c]quinazoline hydrochloride]	> 10	< 10
Cc1cc2c(cc1F)nc(N1CCNCC1)c1nncn12 [Example 35]	> 10	> 10
Cc1nc2c3cc(F)c(C(F)(F)F)cc3nc(N3CCNCC3)n2n1 [Example 130, 9-fluoro-2-methyl-5-(piperazin-1-yl)-8-(trifluoromethyl)-[1,2,4]triazolo[1,5-c]quinazoline hydrochloride]	> 10	< 10
Cc1nc2c(N3CCNCC3)nc3ccc(Cl)cc3c2o1 [Example 144, 8-chloro-2-methyl-4-(piperazin-1-yl)oxazolo[4,5-c]quinoline]	> 10	< 10
Clc1ccc2nc(OCC3CNC3)c3nncn3c2c1 [Example 75, 4-(azetidin-3-ylmethoxy)-8-chloro-[1,2,4]triazolo[4,3-a]quinoxaline]	> 10	> 10
Cc1ccc2nc(N3CCNCC3)c3nnnn3c2c1 [Example 18, 8-Methyl-4-(piperazin-1-yl)tetrazolo[1,5-a]quinoxaline]	> 10	< 10
Cn1cc2c(n1)c(N1CCNCC1)nc1ccc(C(F)(F)F)cc12 [Example 156, 2-Methyl-4-piperazinyl-8-(trifluoromethyl)pyrazolo[3,4-c]quinoline HCl salt]	< 10	< 10
CN(CCN)c1nc2ccc(Cl)cc2n2cnnc12 [Example 79, N^1-(8-chloro-[1,2,4]triazolo[4,3-a]quinoxalin-4-yl)-N-1-methylethane-1,2-diamine]	> 10	> 10
CCCc1ccc2nc(N3CCN(C)CC3)c3nncn3c2c1 [Example 175, 4-(4-methylpiperazin-1-yl)-8-propyl-[1,2,4]triazolo[4,3-a]quinoxaline]	> 10	< 10
CN1CCN(c2nc3cc(C(F)(F)F)ccc3c3conc23)CC1 [Example 220, 4-(4-Methylpiperazinyl)-7-(trifluoromethyl)isoxazolo[3,4-c]quinoline]	> 10	< 10
FC(F)(F)Oc1ccc2nc(N3CCNCC3)c3nncn3c2c1 [Example 51, 4-(piperazin-1-yl)-8-(trifluoromethoxy)-[1,2,4]triazolo[4,3-a]quinoxaline]	> 10	< 10
CN1CCN(c2nc3cc(F)c(Cl)cc3n3nnnc23)CC1 [Example 189, 8-chloro-7-fluoro-4-(4-methylpiperazin-1-yl)tetrazolo[1,5-a]quinoxaline]	> 10	< 10
FC(F)(F)c1ccc2c(c1)nc(N1CCNCC1)c1nncn12 [Example 26, 4-(piperazin-1-yl)-7-(trifluoromethyl)-[1,2,4]triazolo[4,3-a]quinoxaline]	> 10	> 10
Cc1nc2c3cc(Cl)c(F)cc3nc(N3CCNCC3)n2n1 [Example 96, 9-Chloro-8-fluoro-2-methyl-5-(piperazin-1-yl)-[1,2,4]triazolo[1,5-c]quinazoline]	> 10	< 10
CCc1ccc2nc(N3CCN(C)CC3)n3nc(C)nc3c2c1 [Example 139, 9-ethyl-2-methyl-5-(4-methylpiperazin-1-yl)-[1,2,4]triazolo[1,5-c]quinazoline]	> 10	< 10
Cc1ccc2nc(N3CCNCC3)n3nc(C)nc3c2c1 [Example 100, 2,9-Dimethyl-5-(piperazin-1-yl)-[1,2,4]triazolo[1,5-c]quinazoline]	> 10	> 10
CCc1nc2c3cc(Cl)ccc3nc(N3CCN(C)CC3)n2n1 [Example 114, 9-Chloro-2-ethyl-5-(4-methylpiperazin-1-yl)-[1,2,4]triazolo[1,5-c]quinazoline]	> 10	< 10
Clc1ccc2nc(N3CC4CNCC4C3)c3nncn3c2c1 (stereo not drawn) [Example 69, 8-chloro-4-(hexahydropyrrolo[3,4-c]pyrrol-2(1H)-yl)-[1,2,4]triazolo[4,3-a]quinoxaline]	> 10	> 10
Cc1nc2c3cc(F)c(F)cc3nc(N3CCN(C)CC3)n2n1 [Example 97, 8,9-Difluoro-2-methyl-5-(4-methylpiperazin-1-yl)-[1,2,4]triazolo[1,5-c]quinazoline]	> 10	< 10
Cn1cc2c(n1)c(N1CCNCC1)nc1ccc(Cl)cc12 [Example 151, 8-Chloro-2-methyl-4-(piperazin-1-yl)-2H-pyrazolo[3,4-c]quinoline]	< 10	< 10
CN1CCN(c2nc3ccc(Cl)cc3c3ccsc23)CC1 [Example 149, 8-Chloro-4-(4-methylpiperazin-1-yl)thieno[2,3-c]quinoline]	< 10	< 10
